Experimental data published in ChEMBL document CHEMBL1125278, “Novel cerebroprotective agents with central nervous system stimulating activity. 2. Synthesis and pharmacology of the 1-(acylamino)-7-hydroxyindan derivatives” (1991).

Key:
[1] = tested on: Mus musculus; assay: Antihypoxic effect tested by the ratio of survival time (SVT) of test mice to that of control group, dosed intraperitoneally at 30 mg/kg; type: functional; conditions: route intraperitoneal
[2] = tested on: Mus musculus; assay: Time of recovery of righting reflux (RRT) in seconds was measured after oral administration of 30 mg/kg in mice for the promotional effect on recovery from coma.; type: functional
[3] = tested on: Mus musculus; assay: Antihypoxic effect tested by the ratio of survival time (SVT) of test mice to that of control group, dosed orally 30 mg/kg; type: functional; conditions: route oral
[4] = tested on: Mus musculus; assay: Spontaneous movement (SMT) in seconds, was measured after oral administration of 30 mg/kg in mice to test for promoting effects on recovery from coma.; type: functional
[5] = tested on: Mus musculus; assay: Time of recovery of righting reflux (RRT) in seconds was measured after administration of 100 mg/kg orally in mice for the promotional effect on recovery from coma.; type: functional
[6] = tested on: Mus musculus; assay: Antihypoxic effect by the ratio of survival time (SVT) of test mice to that of control group at a dose of 100 mg/kg administered intraperitoneally.; type: functional
[7] = tested on: Mus musculus; assay: Time of recovery of spontaneous movement (SMT) in seconds was measured after administration of 100 mg/kg orally in mice for the promotional effect on recovery from coma.; type: functional
[8] = tested on: Mus musculus; assay: Antihypoxic effect by the ratio of survival time (SVT) of test mice to that of control group at a dose of 100 mg/kg administered orally.; type: functional, organism-based; design: dose 100 mg/kg

Compound	SVT [1]	RRT [2]	SVT [3]	SMT [4]	RRT [5]	SVT [6]	SMT [7]	SVT [8]
CCC(C)c1cc(C)c2c(c1O)C(NC(=O)CN1CCN(c3cc(Cl)cc(Cl)c3)CC1)CC2 (stereo not drawn)	139.4%	114 s	113.2%	100.6 s				
CCC(C)c1cc(C)c2c(c1O)C(NC(=O)CN1CCN(c3ccccc3)CC1)CC2 (stereo not drawn)	89.3%	80.3 s	85.9%	78.2 s				
Cc1cccc(N2CCN(CC(=O)NC3CCc4c(C)cc(C)c(O)c43)CC2)c1C (stereo not drawn)	134.3%							
Cc1cc(C)c2c(c1O)C(NC(=O)CCN1CCN(c3cccc(Cl)c3)CC1)C(C)(C)C2 (stereo not drawn)	79.5%	95.4 s		74 s				
CCC(C)c1cc(C)c2c(c1O)C(NC(=O)CN1CCN(c3cccc(C)c3)CC1)CC2 (stereo not drawn)	172.2%	91.9 s	110.5%	125.1 s				
Cc1cc(C)c2c(c1O)C(NC(=O)CN1CCN(c3cccc(C(F)(F)F)c3)CC1)C(C)(C)C2 (stereo not drawn)		89.5 s	107.8%	83.7 s				
Cc1cc(C)c2c(c1O)C(NC(=O)CN1CCSCC1)C(C)(C)C2 (stereo not drawn)	100.8%	110.8 s		119.9 s				
Cc1cc(C)c2c(c1O)C(NCC(=O)N1CCN(c3cccc(Cl)c3)CC1)C(C)(C)C2 (stereo not drawn)	146.8%	116.3 s		95.2 s				
CCC(C)c1cc(C)c2c(c1O)C(NC(=O)CN1CCN(c3cccc(OC)c3)CC1)CC2 (stereo not drawn)	218.5%	99.1 s	162.3%	103.5 s				
Cc1cc(C)c2c(c1O)C(NC(=O)CN1CCCC1C(=O)O)C(C)(C)C2 (stereo not drawn)		103.3 s	92.3%	150.3 s				
CCC(C)c1cc(C)c2c(c1O)C(NC(=O)CN1CCN(c3cccc(Cl)c3Cl)CC1)CC2 (stereo not drawn)	122.4%	98 s	119.2%	117.4 s				
CCC(C)c1cc(C)c2c(c1O)C(NC(=O)CN1CCN(c3cccc(Cl)c3)CC1)C(C)(C)C2 (stereo not drawn)	147.7%	99.4 s		80.3 s				
CCOc1ccccc1N1CCN(CC(=O)NC2c3c(O)c(C)cc(C)c3CC2(C)C)CC1 (stereo not drawn)		90.3 s	130.4%	71.8 s				
Cc1cc(C)c2c(c1O)C(NC(=O)Cn1ccnc1)C(C)(C)C2 (stereo not drawn)		76.8 s	71.8%	66.4 s				
CCCc1cc(C)c2c(c1O)C(NC(=O)CN1CCN(c3cccc(OC)c3)CC1)C(C)(C)C2 (stereo not drawn)		114.6 s	95%	107.2 s				
Cc1cc(C)c2c(c1O)C(NC(=O)CN1CCN(c3ccccc3Cl)CC1)C(C)(C)C2 (stereo not drawn)		86.5 s	117.3%	77.2 s				
VITAMIN E					92.2 s	96.7%	83.5 s	178%
Cc1ccccc1C1Cc2c(C)cc(C)c(O)c2C1NC(=O)CN1CCN(c2cccc(Cl)c2)CC1 (stereo not drawn)		75.1 s	123.7%	66 s				
COc1cccc(N2CCN(CC(=O)NC3c4c(O)ccc(C)c4CC3(C)C)CC2)c1 (stereo not drawn)		62.9 s	97.2%	64.7 s				
Cc1cc(C)c2c(c1O)C(NC(=O)CN1CCN(c3cc(Cl)cc(Cl)c3)CC1)C(C)(C)C2 (stereo not drawn)		76.1 s	106.4%	71.1 s				
COc1cccc(N2CCN(CC(=O)NC3c4c(O)c(C)cc(C)c4CC3Cc3ccccc3)CC2)c1 (stereo not drawn)			123.1%					
Cc1cc(C)c2c(c1O)C(NC(=O)CN1CCN(c3cccc(Cl)c3Cl)CC1)C(C)(C)C2 (stereo not drawn)		99.2 s	94.6%	126.6 s				
Cc1cc(C)c2c(c1O)C(NC(=O)CN1CCN(c3cccc(F)c3)CC1)C(C)(C)C2 (stereo not drawn)		82.8 s	122.7%	72.3 s				
Cc1cc(C)c2c(c1O)C(NC(=O)CN1CCCC1)C(C)(C)C2 (stereo not drawn)	134.2%	85.8 s		66.4 s				
COc1ccc(N2CCN(CC(=O)NC3c4c(O)c(C)cc(C)c4CC3(C)C)CC2)cc1 (stereo not drawn)		82.3 s	100.6%	63.1 s				
COc1cccc(N2CCN(CCNC3c4c(O)c(C)cc(C)c4CC3(C)C)CC2)c1 (stereo not drawn)	120.8%	110 s		112.1 s				
Cc1cc(C)c2c(c1O)C(NC(=O)CN1CCN(c3cccc(Br)c3)CC1)C(C)(C)C2 (stereo not drawn)		81.8 s	83.2%	91 s				
